{"source": "patent US20230382915A1", "about": "“GCN2 AND PERK KINASE INHIBITORS AND METHODS OF USE THEREOF” (Deciphera Pharmaceuticals, LLC, priority 2021, published 2023)", "key": {"CCRF-CEM leukemia cells": {"system": "CCRF-CEM leukemia cells", "assay": "CCRF-CEM ASNase cell proliferation assay", "format": "cell-based", "conditions": "Homo sapiens, 1 mU/mL ASNase, 72 h", "method": "CCRF-CEM leukemia cells (catalog #CCL-116) were obtained from the American Type Culture Collect (ATTC, Manassas, VA). Cells were grown in RPMI-1640 medium supplemented with 10% heat-inactivated fetal bovine serum (Invitrogen, Carlsbad, CA) and 1% Penicillin/Streptomycin/L-Glutamine at 37° C., 5% CO2, and 95% humidity. Cells were expanded until reaching one million cells per mL at which time they are subcultured or harvested for assay use. Ten thousand cells per well in 200 μL RPMI-1640 supplemented with 10% heat-inactivated fetal bovine serum and 1% Penicillin/Streptomycin were dispensed into a 96-well black clear bottom plate. A serial dilution of test compound and 1 mU/mL ASNase was added in triplicate and plates were incubated for 72 h at 37° C., 5% CO2, and 95% humidity. At the end of the incubation, 40 μL of a […] solution of resazurin (Sigma, St. Louis, MO) in PBS was added to each well of the plate and plates were incubated for an additional 6 h at 37° C., 5% CO2, and 95% humidity. Plates were read on a Synergy2 or equivalent reader (Biotek, Winooski VT) using an excitation of 540 nm and an emission of 600 nm. Data was analyzed using GraphPad Prism software (GraphPad, San Diego, CA) to calculate IC50 values."}, "[1]": {"system": "phospho-GCN2 (Thr899) in HCT116 colorectal cancer cells", "assay": "HCT116 amino acid starved (-AA) phospho-GCN2 Western blot", "format": "cell-based", "conditions": "Homo sapiens, HCT-116, 4 h, read-out: HCT116 -AA pGCN2 Western Blot", "method": "HCT116 colorectal cancer cells (catalog #CCL-247) were obtained from the American Type Culture Collect (ATTC, Manassas, VA). Briefly, cells were grown in RPMI 1640 supplemented with 10% heat inactivated fetal bovine serum (Invitrogen, Carlsbad, CA) and 1% Penicillin/Streptomycin/L-Glutamine at 37° C., 5% CO2, and 95% humidity. Cells were expanded until reaching 70-95% confluency at which point they were subcultured or harvested for assay use. Cells were seeded in 12-well culture plate at five hundred thousand cells per well in 1 mL complete growth medium and incubated overnight at 37° C., 5% CO2, and 95% humidity. The next day each well was replaced with 1 mL Earle's Balanced Salt Solution (EBSS, Invitrogen, Carlsbad, CA) supplemented with 10% Dialyzed Fetal Bovine Serum, 5.5 mM Glucose, 1% Penicillin/Streptomycin and 1% Vitamin solution (thermo #11120052). A serial dilution of test compound was dispensed into well. Plates were incubated for 4 h at 37° C., 5% CO2, and 95% humidity. […] Western blot was performed on each lysate to quantify phospho-GCN2 (Thr899), total GCN2, ATF4 and beta-Actin. […] Data were analyzed using GraphPad Prism software (GraphPad, San Diego, CA) to calculate IC50 values."}, "[2]": {"system": "H358 solid tumor spheroids", "assay": "Spheroid proliferation assay, H358", "format": "cell-based", "method": "Non Small Cell Lung Cancer (NSCLC) cell lines H358 (catalog #CRL-5807) and H2030 (catalog #CRL-5914), and fibrosarcoma line HT-1080 (catalog […]) were obtained from the American Type Culture Collect (ATTC, Manassas, VA). Cells were grown in RPMI-1640 medium supplemented with 10% heat-inactivated fetal bovine serum and 1% Penicillin/Streptomycin/L-Glutamine (Invitrogen, Carlsbad, CA) at 37° C., 5% CO2, and 95% humidity and maintained at 50-80% confluency until use. 500-1000 cells were plated in 96-well ultra-low attachment plates (Corning, Glendale, AZ) with complete growth media at 80 μL/well and incubated overnight at 37° C., 5% CO2, and 95% humidity to form spheroids. The next day, serial dilutions of test compounds were prepared in complete growth media and 20 μL/well media containing compound titers was added to spheroids in triplicate. Spheroids were then incubated with test compounds for 5 days under the same conditions. At the end of the incubation, spheroids were lysed with 100 μL/well CellTiter-Glo 3D Viability Assay (Promega, Madison, WI) and luminescence was detected using Synergy2 or equivalent reader (Biotek, Winooski, VT). Data was analyzed using GraphPad Prism software (GraphPad, San Diego, CA) to calculate IC50 values."}, "PERK enzyme": {"target": "PERK enzyme (Homo sapiens (Human), UniProt Q9NZJ5)", "sequence (Q9NZJ5 other isoform, or with tags, fused parts or gaps)": "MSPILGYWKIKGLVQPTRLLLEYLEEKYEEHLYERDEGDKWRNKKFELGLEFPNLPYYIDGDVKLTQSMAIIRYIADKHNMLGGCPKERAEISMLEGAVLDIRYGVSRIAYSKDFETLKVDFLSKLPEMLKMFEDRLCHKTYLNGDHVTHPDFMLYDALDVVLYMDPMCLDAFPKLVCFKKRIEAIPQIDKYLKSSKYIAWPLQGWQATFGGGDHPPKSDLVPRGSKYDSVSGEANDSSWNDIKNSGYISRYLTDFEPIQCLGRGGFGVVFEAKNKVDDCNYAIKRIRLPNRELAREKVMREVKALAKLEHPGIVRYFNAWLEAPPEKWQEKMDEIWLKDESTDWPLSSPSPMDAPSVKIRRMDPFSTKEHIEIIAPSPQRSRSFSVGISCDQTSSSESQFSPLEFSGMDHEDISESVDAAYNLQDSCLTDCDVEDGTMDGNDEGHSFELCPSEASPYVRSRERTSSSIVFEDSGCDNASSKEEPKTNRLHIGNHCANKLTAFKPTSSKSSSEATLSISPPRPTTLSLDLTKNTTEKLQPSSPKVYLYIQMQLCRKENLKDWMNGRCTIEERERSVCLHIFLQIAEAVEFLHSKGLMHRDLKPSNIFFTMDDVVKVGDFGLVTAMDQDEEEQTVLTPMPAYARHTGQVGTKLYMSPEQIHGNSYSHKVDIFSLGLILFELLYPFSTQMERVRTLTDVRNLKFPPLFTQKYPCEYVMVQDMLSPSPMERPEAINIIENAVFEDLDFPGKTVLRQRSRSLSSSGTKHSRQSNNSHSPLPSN", "assay": "Biochemical assay for PERK (coupled pyruvate kinase/lactate dehydrogenase)", "conditions": "1 mM ATP", "method": "Activity of PERK kinase was determined spectroscopically using a coupled pyruvate kinase/lactate dehydrogenase assay that continuously monitors the ATP hydrolysis-dependent oxidation of NADH (e.g., Schindler et al. Science (2000) 289: 1938-1942). Assays were conducted in 384-well plates ([…] final volume) using 10 nM PERK (from Beryllium), 0.25 mg/mL Myelin Basic Protein substrate, 1.5 units pyruvate kinase, 2.1 units lactate dehydrogenase, 1 mM phosphoenol pyruvate, 0.28 mM NADH and 1 mM ATP in assay buffer (100 mM Tris, pH 7.5, 15 mM MgCl2, 0.5 mM DTT, 0.004% (w/v) BSA, and 0.004% Triton X-100). Inhibition of PERK was measured by adding serial diluted test compound (final assay concentration of 1% DMSO). A decrease in absorption at 340 nm was monitored continuously for 6 hours at 30° C. on a multi-mode microplate reader (BioTek). The reaction rate was calculated using the 2-3 h time frame. The reaction rate at each concentration of compound was converted to percent inhibition using controls (i.e., reaction with no test compound and reaction with a known inhibitor) and IC50 values were calculated using software routines in Prism (GraphPad software)."}}, "data": [{"smiles": "Cn1cc(-c2cccc(NS(=O)(=O)c3cc(Cl)cc(CO)c3Cl)c2F)c2c(N)ncnc21", "note": "[Example 2, N-(3-(4-amino-7-methyl-7H-pyrrolo[2,3-d]pyrimidin-5-yl)-2-fluorophenyl)-2,5-dichloro-3-(hydroxymethyl)benzenesulfonamide]", "values": [{"measurement": "IC50", "setting": "CCRF-CEM leukemia cells", "value": "≤ 0.1", "unit": "µM"}, {"measurement": "IC50", "setting": "[1]", "value": "≤ 0.1", "unit": "µM"}, {"measurement": "IC50", "setting": "[2]; Homo sapiens, NCI-H358, 120 h, 5 days, FIG. 11B, read-out: inhibition of cell proliferation IC50, single agent", "value": 0.01, "unit": "µM"}, {"measurement": "spheroid growth, combination treatment", "setting": "[2]; with 3.3 nM sotorasib, 96 h, FIG. 12B", "value": "greater spheroid regression compared to either single agent"}, {"measurement": "IC50", "setting": "PERK enzyme", "value": "≤ 0.1", "unit": "µM"}]}]}
